Measurements from ChEMBL document CHEMBL5113398, “Design and synthesis of new quinoline derivatives as selective C-RAF kinase inhibitors with potent anticancer activity” (Eur J Med Chem, 2022).

Columns and labels:
[1] = test system: MOLT-4; experiment: Anticancer activity against human MOLT-4 cells assessed as cell growth inhibition incubated for 48 hrs by SRB assay; assay type: functional
[2] = test system: HOP-92; experiment: Anticancer activity against human HOP-92 cells assessed as cell growth inhibition incubated for 48 hrs by SRB assay; assay type: functional
[3] = test system: NCI-H322M; experiment: Anticancer activity against human NCI-H322M cells assessed as cell growth inhibition incubated for 48 hrs by SRB assay; assay type: functional
[4] = test system: HT-29; experiment: Anticancer activity against human HT-29 cells assessed as cell growth inhibition incubated for 48 hrs by SRB assay; assay type: functional
[5] = test system: KM12; experiment: Anticancer activity against human KM12 cells assessed as cell growth inhibition incubated for 48 hrs by SRB assay; assay type: functional
[6] = test system: SF-295; experiment: Anticancer activity against human SF-295 cells assessed as cell growth inhibition incubated for 48 hrs by SRB assay; assay type: functional
[7] = test system: SNB-19; experiment: Anticancer activity against human SNB-19 cells assessed as cell growth inhibition incubated for 48 hrs by SRB assay; assay type: functional
[8] = test system: Malme-3M; experiment: Anticancer activity against human Malme-3M cells assessed as cell growth inhibition incubated for 48 hrs by SRB assay; assay type: functional
[9] = test system: M14; experiment: Anticancer activity against human M14 cells assessed as cell growth inhibition incubated for 48 hrs by SRB assay; assay type: functional
[10] = test system: MDA-MB-435; experiment: Anticancer activity against human MDA-MB-435 cells assessed as cell growth inhibition incubated for 48 hrs by SRB assay; assay type: functional
[11] = test system: SK-MEL-2; experiment: Anticancer activity against human SK-MEL-2 cells assessed as cell growth inhibition incubated for 48 hrs by SRB assay; assay type: functional
[12] = test system: SK-MEL-5; experiment: Anticancer activity against human SK-MEL-5 cells assessed as cell growth inhibition incubated for 48 hrs by SRB assay; assay type: functional
[13] = test system: UACC-257; experiment: Anticancer activity against human UACC-257 cells assessed as cell growth inhibition incubated for 48 hrs by SRB assay; assay type: functional
[14] = test system: UACC-62; experiment: Anticancer activity against human UACC-62 cells assessed as cell growth inhibition incubated for 48 hrs by SRB assay; assay type: functional
[15] = test system: IGROV-1; experiment: Anticancer activity against human IGROV-1 cells assessed as cell growth inhibition incubated for 48 hrs by SRB assay; assay type: functional
[16] = test system: OVCAR-5; experiment: Anticancer activity against human OVCAR-5 cells assessed as cell growth inhibition incubated for 48 hrs by SRB assay; assay type: functional
[17] = test system: CAKI-1; experiment: Anticancer activity against human CAKI-1 cells assessed as cell growth inhibition incubated for 48 hrs by SRB assay; assay type: functional
[18] = test system: DU-145; experiment: Anticancer activity against human DU-145 cells assessed as cell growth inhibition incubated for 48 hrs by SRB assay; assay type: functional
[19] = test system: MCF7; experiment: Anticancer activity against human MCF7 cells assessed as cell growth inhibition incubated for 48 hrs by SRB assay; assay type: functional
[20] = test system: MDA-MB-231; experiment: Anticancer activity against human MDA-MB-231 cells assessed as cell growth inhibition incubated for 48 hrs by SRB assay; assay type: functional
[21] = test system: T47D; experiment: Anticancer activity against human T47D cells assessed as cell growth inhibition incubated for 48 hrs by SRB assay; assay type: functional
[22] = test system: CCRF-CEM; experiment: Anticancer activity against human CCRF-CEM cells assessed as total cell growth inhibition incubated for 48 hrs by SRB assay; assay type: functional
[23] = test system: K562; experiment: Anticancer activity against human K562 cells assessed as total cell growth inhibition incubated for 48 hrs by SRB assay; assay type: functional
[24] = test system: MOLT-4; experiment: Anticancer activity against human MOLT-4 cells assessed as total cell growth inhibition incubated for 48 hrs by SRB assay; assay type: functional
[25] = test system: HOP-62; experiment: Anticancer activity against human HOP-62 cells assessed as total cell growth inhibition incubated for 48 hrs by SRB assay; assay type: functional
[26] = test system: NCI-H226; experiment: Anticancer activity against human NCI-H226 cells assessed as total cell growth inhibition incubated for 48 hrs by SRB assay; assay type: functional
[27] = test system: NCI-H522; experiment: Anticancer activity against human NCI-H522 cells assessed as total cell growth inhibition incubated for 48 hrs by SRB assay; assay type: functional
[28] = test system: SW-620; experiment: Anticancer activity against human SW-620 cells assessed as total cell growth inhibition incubated for 48 hrs by SRB assay; assay type: functional
[29] = test system: SNB-19; experiment: Anticancer activity against human SNB-19 cells assessed as total cell growth inhibition incubated for 48 hrs by SRB assay; assay type: functional
[30] = test system: M14; experiment: Anticancer activity against human M14 cells assessed as total cell growth inhibition incubated for 48 hrs by SRB assay; assay type: functional
[31] = test system: SK-MEL-28; experiment: Anticancer activity against human SK-MEL-28 cells assessed as total cell growth inhibition incubated for 48 hrs by SRB assay; assay type: functional
[32] = test system: SK-MEL-5; experiment: Anticancer activity against human SK-MEL-5 cells assessed as total cell growth inhibition incubated for 48 hrs by SRB assay; assay type: functional
[33] = test system: UACC-62; experiment: Anticancer activity against human UACC-62 cells assessed as total cell growth inhibition incubated for 48 hrs by SRB assay; assay type: functional
[34] = test system: IGROV-1; experiment: Anticancer activity against human IGROV-1 cells assessed as total cell growth inhibition incubated for 48 hrs by SRB assay; assay type: functional
[35] = test system: OVCAR-3; experiment: Anticancer activity against human OVCAR-3 cells assessed as total cell growth inhibition incubated for 48 hrs by SRB assay; assay type: functional
[36] = test system: OVCAR-5; experiment: Anticancer activity against human OVCAR-5 cells assessed as total cell growth inhibition incubated for 48 hrs by SRB assay; assay type: functional
[37] = test system: 786-0; experiment: Anticancer activity against human 786-0 cells assessed as total cell growth inhibition incubated for 48 hrs by SRB assay; assay type: functional
[38] = test system: A498; experiment: Anticancer activity against human A498 cells assessed as total cell growth inhibition incubated for 48 hrs by SRB assay; assay type: functional
[39] = test system: RXF 393; experiment: Anticancer activity against human RXF 393 cells assessed as total cell growth inhibition incubated for 48 hrs by SRB assay; assay type: functional
[40] = test system: SN12C; experiment: Anticancer activity against human SN12C cells assessed as total cell growth inhibition incubated for 48 hrs by SRB assay; assay type: functional
[41] = test system: TK-10; experiment: Anticancer activity against human TK-10 cells assessed as total cell growth inhibition incubated for 48 hrs by SRB assay; assay type: functional
[42] = test system: DU-145; experiment: Anticancer activity against human DU-145 cells assessed as total cell growth inhibition incubated for 48 hrs by SRB assay; assay type: functional
[43] = test system: MDA-MB-468; experiment: Anticancer activity against human MDA-MB-468 cells assessed as total cell growth inhibition incubated for 48 hrs by SRB assay; assay type: functional
[44] = biological target: RAF proto-oncogene serine/threonine-protein kinase (Homo sapiens, UniProt P04049); experiment: Inhibition of c-Raf (unknown origin) in presence of ATP by hotspot kinase assay
Chain of RAF proto-oncogene serine/threonine-protein kinase (P04049 whole entry): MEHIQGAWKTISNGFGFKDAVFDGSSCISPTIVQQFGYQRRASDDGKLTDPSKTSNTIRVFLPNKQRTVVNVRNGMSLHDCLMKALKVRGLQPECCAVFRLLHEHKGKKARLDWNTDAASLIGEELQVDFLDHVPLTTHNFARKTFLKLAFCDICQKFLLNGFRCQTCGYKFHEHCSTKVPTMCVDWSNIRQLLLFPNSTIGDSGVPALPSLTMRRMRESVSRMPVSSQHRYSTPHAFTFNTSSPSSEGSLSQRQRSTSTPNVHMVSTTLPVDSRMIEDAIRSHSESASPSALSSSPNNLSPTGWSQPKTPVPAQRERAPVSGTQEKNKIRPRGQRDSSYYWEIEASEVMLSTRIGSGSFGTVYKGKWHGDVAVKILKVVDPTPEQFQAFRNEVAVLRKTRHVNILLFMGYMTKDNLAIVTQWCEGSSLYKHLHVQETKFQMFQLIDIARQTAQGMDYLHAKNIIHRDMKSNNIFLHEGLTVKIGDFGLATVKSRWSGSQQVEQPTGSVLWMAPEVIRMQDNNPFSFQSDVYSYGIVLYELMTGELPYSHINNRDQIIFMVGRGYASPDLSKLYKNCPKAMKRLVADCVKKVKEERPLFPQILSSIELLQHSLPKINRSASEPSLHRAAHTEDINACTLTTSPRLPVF

[45] = biological target: Serine/threonine-protein kinase B-raf (Homo sapiens) (UniProt P15056); experiment: Inhibition of wild type B-RAF (unknown origin) at 1 uM in presence of ATP by hotspot kinase assay
Chain of Serine/threonine-protein kinase B-raf (Homo sapiens) (P15056 whole entry): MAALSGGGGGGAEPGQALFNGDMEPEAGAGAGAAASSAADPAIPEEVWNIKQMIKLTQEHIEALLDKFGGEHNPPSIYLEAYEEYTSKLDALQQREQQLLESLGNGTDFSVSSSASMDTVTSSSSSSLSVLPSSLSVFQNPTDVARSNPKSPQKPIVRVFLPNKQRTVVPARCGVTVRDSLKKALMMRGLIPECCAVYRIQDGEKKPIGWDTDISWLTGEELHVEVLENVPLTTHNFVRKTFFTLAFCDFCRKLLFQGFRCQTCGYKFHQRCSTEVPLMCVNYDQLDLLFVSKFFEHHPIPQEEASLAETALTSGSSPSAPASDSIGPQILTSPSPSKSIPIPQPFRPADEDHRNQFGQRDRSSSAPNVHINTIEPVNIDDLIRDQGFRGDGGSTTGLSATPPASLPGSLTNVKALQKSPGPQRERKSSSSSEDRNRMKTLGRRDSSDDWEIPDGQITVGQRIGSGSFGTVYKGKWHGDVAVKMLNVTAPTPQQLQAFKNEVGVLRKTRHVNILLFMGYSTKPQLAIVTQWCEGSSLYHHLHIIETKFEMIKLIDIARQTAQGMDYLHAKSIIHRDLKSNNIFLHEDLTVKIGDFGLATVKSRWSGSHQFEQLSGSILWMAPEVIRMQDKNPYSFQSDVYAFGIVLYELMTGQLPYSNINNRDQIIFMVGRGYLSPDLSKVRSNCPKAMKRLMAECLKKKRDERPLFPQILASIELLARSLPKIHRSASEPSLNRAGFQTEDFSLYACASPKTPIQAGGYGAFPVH

[46] = biological target: Epidermal growth factor receptor (Homo sapiens) (UniProt P00533); experiment: Inhibition of EGFR (unknown origin) at 1 uM in presence of ATP by hotspot kinase assay
Chain of Epidermal growth factor receptor (Homo sapiens) (P00533 whole entry): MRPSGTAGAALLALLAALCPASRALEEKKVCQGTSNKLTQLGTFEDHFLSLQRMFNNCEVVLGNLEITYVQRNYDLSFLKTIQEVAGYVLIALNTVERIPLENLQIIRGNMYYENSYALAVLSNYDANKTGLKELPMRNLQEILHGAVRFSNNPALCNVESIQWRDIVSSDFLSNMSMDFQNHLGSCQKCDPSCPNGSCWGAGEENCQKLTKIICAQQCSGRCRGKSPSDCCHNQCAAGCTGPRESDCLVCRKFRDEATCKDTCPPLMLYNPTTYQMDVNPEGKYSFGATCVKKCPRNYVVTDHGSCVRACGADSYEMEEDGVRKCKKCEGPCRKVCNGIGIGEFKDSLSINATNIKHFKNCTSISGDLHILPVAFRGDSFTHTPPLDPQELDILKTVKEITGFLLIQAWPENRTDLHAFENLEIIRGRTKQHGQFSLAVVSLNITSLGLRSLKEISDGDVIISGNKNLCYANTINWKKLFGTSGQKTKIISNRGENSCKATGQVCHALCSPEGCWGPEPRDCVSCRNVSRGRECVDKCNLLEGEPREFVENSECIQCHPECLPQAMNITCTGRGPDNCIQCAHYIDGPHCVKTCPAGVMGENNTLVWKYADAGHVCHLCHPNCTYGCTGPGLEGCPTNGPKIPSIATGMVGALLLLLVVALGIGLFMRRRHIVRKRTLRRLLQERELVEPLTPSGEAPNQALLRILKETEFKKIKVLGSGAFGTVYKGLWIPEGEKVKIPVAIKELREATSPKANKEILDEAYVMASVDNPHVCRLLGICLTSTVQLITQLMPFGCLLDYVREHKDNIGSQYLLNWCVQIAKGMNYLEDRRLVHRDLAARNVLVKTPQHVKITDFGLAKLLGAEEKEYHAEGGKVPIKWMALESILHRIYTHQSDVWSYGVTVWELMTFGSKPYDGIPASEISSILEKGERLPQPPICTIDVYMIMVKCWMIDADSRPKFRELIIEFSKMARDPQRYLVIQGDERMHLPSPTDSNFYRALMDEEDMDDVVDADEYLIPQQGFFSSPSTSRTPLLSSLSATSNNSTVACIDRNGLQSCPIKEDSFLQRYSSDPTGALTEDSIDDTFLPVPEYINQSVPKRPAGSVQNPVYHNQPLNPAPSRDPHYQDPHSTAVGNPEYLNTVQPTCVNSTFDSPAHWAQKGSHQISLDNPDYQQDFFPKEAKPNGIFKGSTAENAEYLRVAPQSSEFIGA

[47] = biological target: Vascular endothelial growth factor receptor 2 (Homo sapiens) (UniProt P35968); experiment: Inhibition of KDR (unknown origin) at 1 uM in presence of ATP by hotspot kinase assay
Chain of Vascular endothelial growth factor receptor 2 (Homo sapiens) (P35968 whole entry): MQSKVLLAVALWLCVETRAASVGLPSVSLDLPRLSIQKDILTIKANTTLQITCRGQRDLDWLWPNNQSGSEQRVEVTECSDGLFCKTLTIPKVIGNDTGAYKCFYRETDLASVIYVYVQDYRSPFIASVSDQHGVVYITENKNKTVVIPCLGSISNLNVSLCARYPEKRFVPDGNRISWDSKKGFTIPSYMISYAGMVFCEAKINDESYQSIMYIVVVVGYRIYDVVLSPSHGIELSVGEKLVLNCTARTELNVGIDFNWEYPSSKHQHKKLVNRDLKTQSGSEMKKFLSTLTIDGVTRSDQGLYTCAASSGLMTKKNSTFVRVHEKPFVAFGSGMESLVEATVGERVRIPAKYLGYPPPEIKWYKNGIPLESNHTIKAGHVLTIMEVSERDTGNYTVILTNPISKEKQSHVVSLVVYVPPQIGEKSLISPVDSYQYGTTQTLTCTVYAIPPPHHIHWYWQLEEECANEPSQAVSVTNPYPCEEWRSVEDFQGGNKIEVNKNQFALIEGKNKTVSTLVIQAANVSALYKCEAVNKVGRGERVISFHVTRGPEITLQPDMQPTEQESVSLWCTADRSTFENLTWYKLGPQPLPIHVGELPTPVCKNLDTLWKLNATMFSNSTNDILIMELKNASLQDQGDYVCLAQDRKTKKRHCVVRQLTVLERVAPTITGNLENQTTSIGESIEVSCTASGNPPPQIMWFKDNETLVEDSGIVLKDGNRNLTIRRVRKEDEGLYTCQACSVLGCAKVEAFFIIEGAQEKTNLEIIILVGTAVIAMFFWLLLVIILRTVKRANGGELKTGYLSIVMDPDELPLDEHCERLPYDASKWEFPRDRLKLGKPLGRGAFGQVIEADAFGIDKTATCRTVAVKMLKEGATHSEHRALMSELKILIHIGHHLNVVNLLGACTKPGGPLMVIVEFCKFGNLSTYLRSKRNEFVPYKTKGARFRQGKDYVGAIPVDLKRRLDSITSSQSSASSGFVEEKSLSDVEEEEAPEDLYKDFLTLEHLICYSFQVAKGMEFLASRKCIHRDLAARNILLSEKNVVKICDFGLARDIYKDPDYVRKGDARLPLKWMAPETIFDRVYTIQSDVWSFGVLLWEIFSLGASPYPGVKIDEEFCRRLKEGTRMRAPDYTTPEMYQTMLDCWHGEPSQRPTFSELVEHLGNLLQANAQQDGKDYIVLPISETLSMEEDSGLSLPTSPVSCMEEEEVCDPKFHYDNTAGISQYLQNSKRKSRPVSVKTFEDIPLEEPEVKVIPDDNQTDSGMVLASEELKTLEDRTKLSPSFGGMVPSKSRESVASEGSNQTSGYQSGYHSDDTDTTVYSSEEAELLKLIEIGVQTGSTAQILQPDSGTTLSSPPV

[48] = biological target: Hepatocyte growth factor receptor (Homo sapiens) (UniProt P08581); experiment: Inhibition of MET (unknown origin) at 1 uM in presence of ATP by hotspot kinase assay

GI50 [1]: 1320 nM
GI50 [3]: 1820 nM
GI50 [4]: 1750 nM
GI50 [10]: 1900 nM
GI50 [11]: 1740 nM
GI50 [12]: 890 nM
GI50 [16]: 2180 nM
GI50 [18]: 1930 nM
GI50 [19]: 1430 nM
GI50 [20]: 1700 nM
GI50 [21]: 2040 nM
IC50 [44]: 193 nM
inhibition [45]: 26.5%
inhibition [46]: 3.62%
inhibition [47]: 4.5%
inhibition [48]: 1.04%
SMILES: COc1cc2cc(Oc3ccc(NC(=O)Nc4cc(C(F)(F)F)cc(C(F)(F)F)c4)cc3)c(C)nc2cc1OCCN1CCOCC1
GI50 [2]: 900 nM
GI50 [5]: 1530 nM
GI50 [6]: 1140 nM
GI50 [7]: 1880 nM
GI50 [8]: 1200 nM
GI50 [9]: 1510 nM
GI50 [13]: 1400 nM
GI50 [14]: 1670 nM
GI50 [15]: 1540 nM
GI50 [17]: 1470 nM
TGI [22]: 6570 nM
TGI [23]: 5500 nM
TGI [24]: 4290 nM
TGI [25]: 9160 nM
TGI [26]: 6530 nM
TGI [27]: 7290 nM
TGI [28]: 7170 nM
TGI [29]: 7420 nM
TGI [30]: 5880 nM
TGI [31]: 6940 nM
TGI [32]: 1660 nM
TGI [33]: 6900 nM
TGI [34]: 6900 nM
TGI [35]: 5280 nM
TGI [36]: 7970 nM
TGI [37]: 3650 nM
TGI [38]: 6690 nM
TGI [39]: 2990 nM
TGI [40]: 5480 nM
TGI [41]: 12500 nM
TGI [42]: 7050 nM
TGI [43]: 3760 nM
